Consider 2 molecules from patent publication US6608174B1, “Radiolabeled vasoactive intestinal peptide analogs for diagnosis and radiotherapy” (Dabur Research Foundation, priority 2000, dated 2003).

Where two headings read alike, the source gives them in different places. Square brackets hold non-standard residues; d marks the D form. Ends that are not written are not given here. dPhe(4-Cl) = N[C@H](Cc1ccc(Cl)cc1)C(=O)O; Aib = CC(C)(N)C(=O)O

In assay [1] the test system is VIP receptors. Description: Receptor binding and competition assay with 125I labeled peptide (SEQ ID NO:2) on human tumor cell lines. Particulars: for Kd: 4-8° C. As for the experimental part:
In the practice of these methods, the peptide was radioiodinated using the iodogen method. Briefly, 5 μg of the peptide in 10 μl of 50 mM PBS (pH 7.5), an appropriate amount of the radioisotope and 50 μg-100 μg iodogen were incubated at room temperature for 15-30 min with occasional mixing. Radioiodinated peptide was purified from unincorporated radioactive iodine by purification on a Sep Pak C18 cartridge, essentially following the same procedure as described for technetium labeling. Receptor binding and competition assays were performed at 4-8° C. Briefly, 50,000 cells were plated per well of a 24 well plate and allowed to adhere overnight. Before the assay, the cells were washed twice with ice cold binding buffer (25 mM HEPES, 10 mM MgCl2 and 1% BSA in RPMI 1640 medium). The cells were incubated for 2-3 hrs with an appropriate concentration (0.1-10 nM) of the ^125I labeled peptide (SEQ ID NO:2), in the presence and absence of the cold ligand, which is the uniodinated form of the same peptide (1 nM-10 μM). After incubation, the cells were washed thrice with the binding buffer to remove the unbound peptide. The cells were lysed and counts were measured in a Gamma counter. From a comparison of the extent of binding in the presence or absence of the unlabeled peptide (SEQ ID NO:2), the dissociation constant (Kd) (TABLE I) and maximal binding (Bmax) (TABLE II) were calculated for the peptide. […] These characteristics are similar to what has been previously reported for VIP receptors. The following tumor cell lines were assayed using the above described binding competition assay: HT29 (human colorectal adenocarcinoma); PTC (human primary tumor cells adenocarcinoma); KB (human squamous cell carcinoma); 4451 (human squamous cell carcinoma); L132 (human lung carcinoma); A549 (human lung carcinoma); HBL100 (human breast carcinoma) and PA1 (human ovarian carcinoma). Cells were grown in RPMI 1640 supplemented with 10% fetal calf serum, glutamine and antibiotics using standard cell culture techniques (see Animal Cell Culture: A Practical Approach, Freshney, ed, IRL press: Oxford, UK, 1992).

Assay [2] deals with high affinity (nM range), low surface expression receptor on human tumor cells (VIP receptor) (human). Description: homologous radioligand competition, 125I-SEQ ID NO:2 on A549 cells. For orientation: Loss of bound radioactivity is the signal in a displacement assay; it reports binding, not function.
The target of assay [3] is low affinity (µM range), high surface expression receptor on human tumor cells (VIP receptor) (human). Described as above.
For assay [4], the target named is high affinity (nM range), low surface expression receptor on human tumor cells (VIP receptor) (human). Description: homologous radioligand competition, 125I-SEQ ID NO:2 on HBL 100 cells.
Assay [5] addresses low affinity (µM range), high surface expression receptor on human tumor cells (VIP receptor) (human). The description is as above.
Assay [6] addresses VIP receptors on human tumor cell lines (human). Description: displacement of 125I labeled VIP on PA1 cells.
Assay [7] deals with high affinity (nM range), low surface expression receptor on human tumor cells (VIP receptor) (human). Description: maximal binding, 125I-SEQ ID NO:2 on HBL 100 cells.
In assay [8] the target is low affinity (µM range), high surface expression receptor on human tumor cells (VIP receptor) (human). Description: maximal binding, 125I-SEQ ID NO:2 on HBL 100 cells.
Assay [9] concerns the target high affinity (nM range), low surface expression receptor on human tumor cells (VIP receptor) (human). Description: homologous radioligand competition, 125I-SEQ ID NO:2 on HT29 cells.
Assay [10] has as its target low affinity (µM range), high surface expression receptor on human tumor cells (VIP receptor) (human). The description is as above.
The target in assay [11] is VIP receptors on human tumor cell lines (human). Description: displacement of 125I labeled VIP (10-28) fragment on PTC cells.

As to “His-Ser-Asp-Aib-Val-4-Cl-D-Phe-Thr-Asp-Asn-Tyr-Thr-Arg-Leu-Arg-Lys-Gln-Leu-Ala-Val-Lys-Lys-Tyr-Leu-Asn-Ser-Ile-Leu-Asn-NH2 (HSD[Aib]V[dPhe(4-Cl)]TDNYTRLRKQLAVKKYLNSILN-NH2; N-terminus assumed; SMILES CC[C@H](C)[C@H](NC(=O)[C@H](CO)NC(=O)[C@H](CC(N)=O)NC(=O)[C@H](CC(C)C)NC(=O)[C@H](Cc1ccc(O)cc1)NC(=O)[C@H](CCCCN)NC(=O)[C@H](CCCCN)NC(=O)[C@@H](NC(=O)[C@H](C)NC(=O)[C@H](CC(C)C)NC(=O)[C@H](CCC(N)=O)NC(=O)[C@H](CCCCN)NC(=O)[C@H](CCCNC(=N)N)NC(=O)[C@H](CC(C)C)NC(=O)[C@H](CCCNC(=N)N)NC(=O)[C@@H](NC(=O)[C@H](Cc1ccc(O)cc1)NC(=O)[C@H](CC(N)=O)NC(=O)[C@H](CC(=O)O)NC(=O)[C@@H](NC(=O)[C@@H](Cc1ccc(Cl)cc1)NC(=O)[C@@H](NC(=O)C(C)(C)NC(=O)[C@H](CC(=O)O)NC(=O)[C@H](CO)NC(=O)[C@@H](N)Cc1c[nH]cn1)C(C)C)[C@@H](C)O)[C@@H](C)O)C(C)C)C(=O)N[C@@H](CC(C)C)C(=O)N[C@@H](CC(N)=O)C(N)=O) [SEQ ID NO:2, VIP receptor antagonist, preferred peptide (Xxx = Aib)]”, the “Bmax1 (maximal binding)” value is 579 pM in [1] (4451 cells, high affinity receptor); 540 pM in [1] (A549 cells, high affinity receptor); 697 pM in assay [1] (HBL 100 cells, high affinity receptor); 367 pM in assay [1] (HT29 cells, high affinity receptor); 602 pM in [1] (KB cells, high affinity receptor); 306 pM in [1] (L132 cells, high affinity receptor). The “Bmax1 (maximal binding)” value amounted to 529 pM in assay [1] (PAI cells, high affinity receptor) and 830 pM in [1] (PTC cells, high affinity receptor). Besides, the Kd came out at 4.48 nM in assay [1] (4451 cells, high affinity receptor, read-out: Kd1); 1910 nM in assay [1] (4451 cells, low affinity receptor, read-out: Kd2); 2.09 nM in assay [1] (A549 cells, high affinity receptor, read-out: Kd1); 1530 nM in [1] (A549 cells, low affinity receptor, read-out: Kd2); 2.13 nM in assay [1] (HBL 100 cells, high affinity receptor, read-out: Kd1); 1600 nM in assay [1] (HBL 100 cells, low affinity receptor, read-out: Kd2). Besides, the Kd turned out to be 3.8 nM in assay [1] (HT29 cells, high affinity receptor, read-out: Kd1); 1370 nM in assay [1] (HT29 cells, low affinity receptor, read-out: Kd2); 4.2 nM in [1] (KB cells, high affinity receptor, read-out: Kd1); 1840 nM in [1] (KB cells, low affinity receptor, read-out: Kd2); 2.6 nM in assay [1] (L132 cells, high affinity receptor, read-out: Kd1); 1030 nM in assay [1] (L132 cells, low affinity receptor, read-out: Kd2). The Kd in assay [1] (PA1 cells, high affinity receptor, read-out: Kd1) amounted to 5.6 nM; in assay [1] (PA1 cells, low affinity receptor, read-out: Kd2) it was 1890 nM; in [1] (PTC cells, high affinity receptor, read-out: Kd1), 1.77 nM; in [1] (PTC cells, low affinity receptor, read-out: Kd2) it was 1180 nM. Moreover, the “Bmax2 (maximal binding)” value in [1] (4451 cells, low affinity receptor) was 51 nM; in assay [1] (A549 cells, low affinity receptor), 48.3 nM; in [1] (HBL 100 cells, low affinity receptor), 69.1 nM; in [1] (HT29 cells, low affinity receptor) it was 67.2 nM; in assay [1] (KB cells, low affinity receptor), 42.9 nM; in [1] (L132 cells, low affinity receptor) it was 45.8 nM. Also, the “Bmax2 (maximal binding)” value in assay [1] (PAI cells, low affinity receptor) is 47.7 nM; in [1] (PTC cells, low affinity receptor) it was 96.6 nM. Also, in assay [1] (one high affinity (nM range), low expression, one low affinity, high expression), the “kinds of receptors bound on the cell surface” value is “bound to two kinds of receptors on the cell surface”.
The IC50 is the concentration that inhibits the measured activity by half. As for HSD[Aib]V[dPhe(4-Cl)]TDNYTRLRKQLAVKKYLNSILN-NH2 (also: 125I-labelled form (iodogen) used as tracer), the Kd in [2] was found to be 2.09 nM; in assay [3], 1530 nM; in [4], 2.13 nM; in [5], 1600 nM; in assay [9], 3.8 nM; in [10], 1370 nM. The IC50 was 7.6 nM in assay [6] and 0.132 nM in [11]. The molecule also registered a Bmax1 in assay [7] of 697 pM. In [8], this molecule returned a Bmax2 of 69.1 nM.
